Patent US20230287336A1, “METHOD FOR IMPROVING FLAVONOID PHENYLPROPANOID COMPOUNDS IN SAUSSUREA INVOLUCRATA CELL CULTURE” (DALIAN PRACTICAL BIOTECHNOLOGY CO, .LTD, priority 2019, published 2023)
Where two headings read alike, the source gives them in different places.

How the values were obtained:
Type in all cases: cell-based
[1] = tested on: Saussurea involucrata cell culture; assay: Content of total flavonoids in cultured cells, measured with a spectrophotometer (rutin standard curve)
Experimental: (2) Method for Determining Total Flavonoids of Saussurea involucrata:
Preparation of control solution: 10 mg of rutin control substance dried to a constant weight at 120° C. was precisely weighed and placed in a 50 mL volumetric flask, an appropriate amount of methanol was added, the mixture was heated in water bath to dissolve the rutin control substance and cooled down, methanol was added to the graduation line, and the mixture was shaken well. Then a control solution was obtained (0.2 mg of anhydrous rutin was contained in 1 mL of control solution);
Preparation of a standard curve: 1 mL, 2 mL, 3 mL, 4 mL, 5 mL and 6 mL of control solutions were precisely weighed and placed in 25 mL volumetric flasks respectively, water was added to 6 mL in each volumetric flask, 1 mL of 5% sodium nitrite solution was added, and the flasks were shaken well and placed for 6 min; 1 mL of 10% aluminum nitrate was added, and the flasks were shaken well and placed for 6 min; 10 mL of sodium hydroxide test solution was added, water was added to the graduation line, and the flasks were shaken well and placed for 15 min; a corresponding reagent was used as a blank, an absorbance was determined at 500 nm, and a standard curve was plotted with the absorbance as a longitudinal coordinate and a concentration as a horizontal coordinate;
Determination: About 0.10 g of coarse powder of this product was taken, precisely weighed and placed in a Soxhlet extractor, about 90 mL of methanol was added, the mixture was heated to reflux until an extracting solution became colorless (the number of reflux times for each sample should not be less than 4 and 2 hours) and transferred into a 50 mL volumetric flask, methanol was added to the graduation line, and the flask was shaken well.

[2] = tested on: Saussurea involucrata cell culture; assay: Contents of rutin, chlorogenic acid, syringin and 1,5-dicaffeoylquinic acid in cultured cells by HPLC
Experimental: (3) Content Determination of Phenylpropanoids
Cultured Saussurea involucrata cells dried to a constant weight were taken and ground to fine powder; about […] of fine powder was precisely weighed, placed in a test tube with a stopper and extracted ultrasonically with 50 mL of 20% methanol for 1 h; a weight loss was supplemented with methanol, the mixture was centrifuged at 15,000 r/min for 20 min, a supernatant was taken and filtered through a 0.45 μm filter membrane, and the contents of rutin, chlorogenic acid, syringin and 1,5-dicaffeoylquinic acid were determined simultaneously through HPLC. Shiseido capcell pak C18 MGII chromatographic column (4.6 mm×250 mm, 5 μm);
A mobile phase A was 0.2% of […] (containing 50 mmo/L KH2PO4), a mobile phase B was acetonitrile, and gradient elution was performed. Gradient conditions: 0 min (VA:VB=92:8)-20 min (VA:VB=90:10)-50 min (VA:VB=70:30)-60 min (VA:VB=50:50); flow velocity 1.0 mL/min^−1; column temperature 30° C.; detection wavelength 265 nm (syringin); sample size 20 μL.

[3] = tested on: Saussurea involucrata cell culture; assay: Dry cell weight / yield of dried cultures after culturing
Experimental: (1) Measurement of Dry Cell Weight Cell culture solution was poured into a 120-mesh stainless steel mesh and filtered to harvest cells, the cells were washed with distilled water 3 times, moisture on the surface of the cells was fully absorbed with absorbent paper, a fresh weight was measured, […]

[4] = harvested suspension culture, medium, additive, time of addition and culturing time as in each example
[5] = cells dried at 50° C. for 24 h, additive and culture conditions as in each example

| Molecule | content of total flavonoids in the cells [1] | content of 1,5-dicaffeoylquinic acid in the cells [2] | content of chlorogenic acid in the cells [2] | content of rutin in the cells [2] | content of syringin in the cells [2] | weight of cultures after being dried (yield of dry products) [3] | content of total flavonoids in the cells [1, 4] | content of 1,5-dicaffeoylquinic acid in the cells [2, 4] | content of chlorogenic acid in the cells [2, 4] | content of rutin in the cells [2, 4] | content of syringin in the cells [2, 4] | weight of cultures after being dried (yield of dry products) [3, 5] |
| --- | --- | --- | --- | --- | --- | --- | --- | --- | --- | --- | --- | --- |
| CC(=O)[O-].[Na+] [sodium acetate] | more than 21.8 % of the cells (dry weight) | more than 2.35% | more than 1.79% | more than 0.064% | more than 1.22% | 15 g/L |  |  |  |  |  |  |
| O=C(O)C=Cc1ccccc1 [cinnamic acid] |  |  |  |  |  |  | more than 22 % of the cells (dry weight) | more than 2.81% | more than 1.66% | more than 0.066% | more than 1.45% | 15 g/L |
| N[C@@H](Cc1ccc(O)cc1)C(=O)O [tyrosine] |  |  |  |  |  |  | more than 19.4 % of the cells (dry weight) | more than 2.75% | more than 0.62% | more than 0.062% | more than 1.49% | 18.2 g/L |
| silver nitrate |  |  |  |  |  |  |  | more than 2.97% | more than 1.47% | more than 0.065% | more than 1.38% | 16 g/L |
| O=C(O)C(=O)O [oxalic acid] |  |  |  |  |  |  | more than 19.6 % of the cells (dry weight) | more than 1.72% | more than 1.27% | more than 0.071% | more than 0.95% | 16 g/L |
| O=C(O)c1ccccc1O [salicylic acid] |  |  |  |  |  |  | more than 21.2 % of the cells (dry weight) | more than 3.55% | more than 1.86% | more than 0.072% | more than 1.09% | 16.8 g/L |
| N[C@@H](Cc1ccccc1)C(=O)O [phenylalanine] |  |  |  |  |  |  | more than 22.7 % of the cells (dry weight) | more than 2.48% | more than 1.28% | more than 0.078% | more than 2.07% | 15 g/L |
| CC/C=C\CC1C(=O)CCC1CC(=O)OC (centres unmarked) [methyl jasmonate] |  |  |  |  |  |  | more than 24.1 % of the cells (dry weight) | more than 4.12% | more than 2.44% | more than 0.081% | more than 1.89% | 20.4 g/L |
